Data from PubChem BioAssay (NCI).
“And” between values parts separate entries of the source, which are not always exact repeats. Equal entries are not always repeated.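 Each compound was tested at five concentrations against cells in 96-well plates for 48 hours. GI50 marks 50% less growth. TGI marks complete inhibition of growth.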

What was measured:
Test in all cases: NCI tumour cell line growth inhibition, 48 h
DU-145 prostate = tested on: DU-145 prostate
K-562 leukemia = tested on: K-562 leukemia
CAKI-1 renal = tested on: CAKI-1 renal
LOX IMVI melanoma = tested on: LOX IMVI melanoma
UO-31 renal = tested on: UO-31 renal
SW-620 colon = tested on: SW-620 colon
SK-MEL-2 melanoma = tested on: SK-MEL-2 melanoma
RPMI-8226 leukemia = tested on: RPMI-8226 leukemia
EKVX NSCLC = tested on: EKVX NSCLC
SF-268 CNS = tested on: SF-268 CNS
IGROV1 ovarian = tested on: IGROV1 ovarian

| Compound | TGI (DU-145 prostate) [µM] | TGI (K-562 leukemia) | TGI (CAKI-1 renal) | TGI (LOX IMVI melanoma) [µM] | TGI (UO-31 renal) [µM] | TGI (SW-620 colon) | TGI (SK-MEL-2 melanoma) [µM] | TGI (RPMI-8226 leukemia) [µM] | TGI (EKVX NSCLC) | TGI (SF-268 CNS) [µM] | TGI (IGROV1 ovarian) [µM] | GI50 (K-562 leukemia) | GI50 (CAKI-1 renal) [µM] | GI50 (LOX IMVI melanoma) [µM] | GI50 (EKVX NSCLC) [µM] | GI50 (SF-268 CNS) [µM] | GI50 (UO-31 renal) [µM] | GI50 (IGROV1 ovarian) [µM] | GI50 (SW-620 colon) | GI50 (SK-MEL-2 melanoma) [µM] |
| --- | --- | --- | --- | --- | --- | --- | --- | --- | --- | --- | --- | --- | --- | --- | --- | --- | --- | --- | --- | --- |
| CCn1c2ccccc2c2cc(NC(=O)c3c(C)[nH]c(=O)[nH]c3=S)ccc21 | > 100 | > 100 µM | > 100 µM | > 100 | > 100 | > 100 µM | > 100 | > 100 |  |  |  |  |  |  |  |  |  |  |  |  |
| COc1cccc(C2c3cc4c(cc3OC(N3CCOCC3)C2C)OCO4)c1 (stereo unspecified) | > 100 | > 100 µM |  | 18.1 | 43.4 | 16.7 µM | 83.6 | > 100 | 87.7 µM | 85.5 | > 100 |  |  |  |  |  |  |  |  |  |
| COc1cccc2c1C(=O)c1c(O)c3c(c(O)c1C2=O)C[C@](O)(C(=O)CO)CC3OC1CC(N)C(OC2CCCCO2)C(C)O1 (stereo partly specified) |  | 6.5 µM | 18.2 µM | 1.66 | 3.63 | 6.48 µM | 2.43 | 5.12 | 3.43 µM | 3.04 | 11.4 |  |  |  |  |  |  |  |  |  |
| CCC[CH2][Ge]([CH2]CCC)([CH2]CCC)[O]C(=O)CCl |  | 31.6 µM | 20.3 µM | 3.52 | 15.6 | 17.4 µM | 19.7 |  | 16.2 µM | 23.1 | 18.4 | 0.879 µM | 5.26 | 1.16 | 1.18 | 10.2 | 2.28 | 3.27 | 4.19 µM | 3.59 |
| O=C1/C(=C/c2ccc(Cl)c(Cl)c2)CN(C(=O)CCN2CCOCC2)C/C1=C\c1ccc(Cl)c(Cl)c1 | 0.148 | 0.585 µM and 2.99 µM | 3.4 µM and 3.53 µM and 2.03 µM | 1.15 |  | 3.32 µM and 0.563 µM and 0.746 µM |  |  | 4.35 µM and 6.41 µM and 3.09 µM |  |  | 0.259 µM and 0.315 µM | 0.579 |  | 1.37 |  |  |  | 1.39 µM and 0.229 µM and 0.249 µM |  |
